Experimental data as given in patent US6613317B1, “Volatile attractants for diabrotica species” (priority 1988, dated 2003).
Marks after values point to notes of the source that are not given here.

What was measured:
[1] = system: northern corn rootworm (NCR) adults; test: Sticky trap attraction in corn, estragole analogues (Example 3); type: in vivo, Diabrotica barberi; conditions: 100 mg per trap, n = 4
Protocol: (§1) Test chemicals were applied by capillary micropipettes to cotton dental wicks that were attached to tops of 1.0 liter cylindrical paper cartons covered with TangleTrap™, Grand Rapids, Mich. The trapping techniques used were as previously described in Example 1. Cinnamyl alcohol, 4-methoxycinnamaldehyde, cinnamyl acetate, and 4-(4′methoxyphenyl)-3-butene-2-one which are solids at ambient temperature were prepared as standard w/v solutions in acetone prior to dosing the cotton wicks. All treatments were made at a dosage of 100 mg or 100 μL of attractant per trap. Control traps had untreated wicks. Four replicates of treated and untreated traps were positioned randomly 10 meters apart on top of 1 m high posts along the edges of 25-50 ha. fields of hybrid corn (Zea mays), infested with adult NCR, SCR, and WCR beetles. Several experiments detailed in the Tables were made in a 0.4 ha plot of sweet corn (Illini X-tra Sweet).
(§2) Attraction of Diabrotica species adults of the sticky traps was measured by the mean number of beetles caught after 1 day (ca. 24 hours) exposure. The significance of the treatments was determined by analysis of variance and the individual means were separated by Duncan's multiple range test (Statistical Package for the Social Sciences, Nie, et al., 2nd. ed. McGraw-Hill, New York (1975). The data was logarithmically transformed for statistical analysis. Means and standard deviations are presented for the untransformed data. Significance levels were set at P=0.05 for all statistical analyses.

[2] = system: western corn rootworm (WCR); test: Sticky trap attraction in corn, phenylethanol analogues (Example 6); type: in vivo, Diabrotica virgifera virgifera; conditions: 100 mg per trap, four replicates, 24 hour
Protocol: as §1, with “chemicals (purchased from Aldrich Chemical Co.; Milwaukee, Wis.)” for “chemicals”, “Unless otherwise indicated, all” for “Cinnamyl alcohol, 4-methoxycinnamaldehyde, cinnamyl acetate, and 4-(4′methoxyphenyl)-3-butene-2-one which are solids at ambient temperature were prepared as standard w/v solutions in acetone prior to dosing the cotton wicks. All”
as §2

D. u. howardi [3] = test: Sticky trap attraction along hybrid corn, Pomology South Farms (Example 2); type: in vivo, Diabrotica undecimpunctata howardi; conditions: 100 mg per trap, n = 4
Protocol: (§3) The candidate lures in all experiments were purchased commercially and exceeded 98% purity. The test chemicals were applied by capillary micropipettes to cotton dental wicks which were attached to the tops of 1.0 liter cylindrical paper cartons covered with TangleTrap™ (Tanglefoot Co., Grand Rapids, Mich.). The sticky trap techniques used were as described in Example 1. Cinnamyl alcohol and para-methoxycinnamaldehyde, which are solids, were dissolved in glass-distilled acetone prior to dosing the cotton wicks. All treatments were applied at a dosage of 100 mg per trap. 1,2,4-trimethoxybenzene, indole, and trans-cinnamaldehyde were mixed in a ratio of 1:1:1, by weight, immediately prior to dosing the cotton wicks. Control traps had untreated cotton wicks. Four replicates of treated and untreated traps were randomly positioned 10 meters apart on top of 1 m high posts along the border of a eight foot wide strip cut through the middle of a 4.05 ha relict prairie at Trelease Woods (ca. two miles northeast of Urbana, Ill.). The field consisted primarily of Andropogon gerardii Vitman (big bluestem) and a variety of composites. The tests were conducted in mid-August of two years and were timed to coincide with the presence of D. cristata and D. barberi adults in the flower heads of Canada thistle (Carduus arvensis Robson). In the second year, several new attractants of D. v. virgifera and D. barberi were tested in Trelease Woods and along the edge of a 0.8 ha field of hybrid corn located at the Pomology South Farms, Urbana, Ill. Attraction of Diabrotica species to the various lures was measured by the mean number of beetles caught after 24-h. On one date in late August of the first year, D. cristata and D. barberi were removed from the traps and sexed in the laboratory. The significance of treatments in all tests was determined by an analysis of variance and the individual means were separated by Duncan's multiple range test (Statistical Package for Social Science, Nie, et al., SPSS: statistical package for the social sciences, 2nd ed. McGraw-Hill, New York (1975). Data were logarithmically transformed for statistical analysis and the means and standard deviations are presented for the untransformed data.

D. u. howardi [4] = test: Sticky trap attraction in prairie habitat, Trelease Woods (Example 2); type: in vivo, Diabrotica undecimpunctata howardi; conditions: 100 mg per trap, n = 4
Summary of the method: (§4)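 Lure-dosed cotton wicks (solids in acetone; untreated controls) on TangleTrap-coated cartons atop 1 m posts, four replicates 10 m apart in relict prairie, mid-August over two years. Read-out: mean beetles caught after 24-h; log-transformed ANOVA with Duncan's multiple range test.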

[5] = system: western corn rootworm (WCR) adults; test: Sticky trap attraction in corn, estragole analogues (Example 3); type: in vivo, Diabrotica virgifera virgifera; conditions: for Mean number of WCR adults per sticky trap (±standard deviation) after 24 hours / Mean number of WCR (±standard deviation) per sticky trap after 24 hours / Relative percent activity as compared with the highest mean in the column (WCR) / Mean number of WCR per sticky trap (±standard deviation) after 24 hours: 100 mg per trap; for Mean number of WCR adults per sticky trap (±standard deviation) after 24 hours / Mean number of WCR (±standard deviation) per sticky trap after 24 hours / Mean number of WCR per sticky trap (±standard deviation) after 24 hours: n = 4
Summary of the method: (§5)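 Cotton wicks dosed with 100 mg or 100 μL attractant per trap on TangleTrap-coated cartons, four replicates 10 m apart on 1 m posts at field edges of hybrid or sweet corn. Mean beetles caught after ~24 h; log-transformed ANOVA with Duncan's test, P=0.05.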

[6] = system: northern corn rootworm (NCR); test: Sticky trap attraction in corn, phenylethanol analogues (Example 6); type: in vivo, Diabrotica barberi; conditions: 100 mg per trap, four replicates, 24 hour
Summary of the method: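 Readout was mean adult Diabrotica catch per trap over about 24 h, analysed by ANOVA on log data with Duncan's multiple range test (P=0.05). Traps carried 100 mg or 100 μL attractant per wick unless stated otherwise, with untreated controls, in four randomised replicates 10 m apart on posts along corn fields.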

D. v. virgifera [7] = test: Sticky trap attraction along hybrid corn, Pomology South Farms (Example 2); type: in vivo, Diabrotica virgifera virgifera; conditions: 100 mg per trap, n = 4
Protocol: as §3

D. barberi [8] = test: Sticky trap attraction in prairie habitat, Trelease Woods (Example 2); type: in vivo, Diabrotica barberi; conditions: 100 mg per trap, n = 4
Summary of the method: as §4

WCR = conditions: in vivo; cited from earlier work
D. cristata = test: Sticky trap attraction in prairie habitat, Trelease Woods (Example 2); type: in vivo, Diabrotica cristata; conditions: 100 mg per trap, n = 4
Summary of the method: as §4

D. v. virgifera [9] = test: as above; type: in vivo, Diabrotica virgifera virgifera; conditions: 100 mg per trap, n = 4
Summary of the method: as §4

[10] = system: southern corn rootworm (SCR) adults; test: Sticky trap attraction in corn, estragole analogues (Example 3); type: in vivo, Diabrotica undecimpunctata howardi; conditions: 100 mg per trap, n = 4
Summary of the method: as §5

D. barberi [11] = test: Sticky trap attraction along hybrid corn, Pomology South Farms (Example 2); type: in vivo, Diabrotica barberi; conditions: 100 mg per trap, n = 4
Protocol: as §3

[12] = system: western corn rootworm (WCR) adults; conditions: in vivo; cited from earlier work

Structure (SMILES) | Mean number of NCR (±standard deviation) per sticky trap after 24 hours ([1]; August 7 (Table 11)) | Mean number of D. u. howardi per stick trap per day (±standard deviation) in corn (D. u. howardi [3]; August 7) | Mean number of D. u. howardi per day (±standard deviation) (D. u. howardi [4]; August 11, 1987) | Mean number of WCR adults per sticky trap (±standard deviation) after 24 hours ([5]; August 4 second year) | Mean number of WCR adults per sticky trap (±standard deviation) after 24 hours ([5]; August 5 first year) | Mean number of WCR (±standard deviation) per sticky trap after 24 hours ([5]; August 7 (Table 11)) | Mean number of D. v. virgifera per stick trap per day (±standard deviation) in corn (D. v. virgifera [7]; August 7) | Mean number of D. barberi per day (±standard deviation) (D. barberi [8]; August 11, 1987) | LR for WCR, most effective volatile attractants yet identified (WCR) [mg] | Mean number of D. cristata per day (±standard deviation) (D. cristata; August 11, 1987) | Mean number of D. v. virgifera per day (±standard deviation) (D. v. virgifera [9]; August 11, 1987) | Mean number of SCR adults per sticky trap (±standard deviation) after 24 hours ([10]; August 4 second year) | Mean number of SCR adults per sticky trap (±standard deviation) after 24 hours ([10]; August 5 first year) | Mean number of SCR (±standard deviation) per sticky trap after 24 hours ([10]; August 7 (Table 11)) | Mean number of D. barberi per stick trap per day (±standard deviation) in corn (D. barberi [11]; August 7) | further results
COc1ccc(C=CC=O)cc1 [XI, 4-methoxycinnamaldehyde] | 0.0^a per sticky trap | 1.5 ± 2.4^a per stick trap per day | 0.3 ± 0.5^a per day | 204.7 ± 34.6^e per sticky trap | 143.7 ± 75.3^e per sticky trap | 375.0 ± 50.0^c per sticky trap | 375.0 ± 50.0^d per stick trap per day | 1.0 ± 0.8^a per day | 0.03 | 11.0 ± 6.7^b per day | 8.5 ± 5.3^b per day | 9.0 ± 6.5^b per sticky trap | 42.7 ± 27.6^b per sticky trap | 1.5 ± 2.4^a per sticky trap | 0.3 ± 0.5^a per stick trap per day | Mean number of NCR (±standard deviation) per sticky trap after 24 hours ([1]; August 18 (Table 11)): 1.0 ± 0.8^a per sticky trap; Mean number of WCR per trap (±standard deviation) ([2]; Table 15): 567.5 ± 111.6b per trap; Mean number of WCR per trap (± standard deviation), column WCW ([2]; Table 17): 360.2 ± 181.3c per trap; Mean number of D. u. howardi per stick trap per day (±standard deviation) in corn (D. u. howardi [3]; August 18): 0.0^a per stick trap per day; period over which treated wicks remained highly attractive to WCR ([5]; 100 mg on wick, transferred daily to fresh traps, August sunlight, two heavy rainstorms): ≥ 16 days; Mean number of WCR (±standard deviation) per sticky trap after 24 hours ([5]; August 18 (Table 11)): 178.7 ± 31.9^b per sticky trap; Mean number of WCR adults per sticky trap (±standard deviation) after 24 hours ([5]; September 11): 22.2 ± 23.1^b per sticky trap; effectiveness relative to previously described WCR attractants (indole, estragole) ([5]; by LR): about 100 fold; limit of response (LR) for attraction of WCR adults in corn ([5]; on cotton wicks, logarithmically decreasing amounts): ~0.03 mg; Mean number of NCR per trap (± standard deviation) ([6]; Table 15): 6.4 ± 4.9a per trap; Mean number of NCR per trap (± standard deviation) ([6]; Table 17): 2.5 ± 1.9a per trap; Mean number of D. v. virgifera per stick trap per day (±standard deviation) in corn (D. v. virgifera [7]; August 18): 178.8 ± 32.0^c per stick trap per day; Mean number of SCR (±standard deviation) per sticky trap after 24 hours ([10]; August 18 (Table 11)): 0.0^a per sticky trap; Mean number of SCR adults per sticky trap (±standard deviation) after 24 hours ([10]; September 11): 1.5 ± 1.3^ab per sticky trap; Mean number of D. barberi per stick trap per day (±standard deviation) in corn (D. barberi [11]; August 18): 1.0 ± 0.8^a per stick trap per day
C=CCc1ccc(OC)cc1 [I, 4-methoxy-1-allylbenzene] | 2.2 ± 2.1^ab per sticky trap | 7.0 ± 4.5^a per stick trap per day | 0.3 ± 0.5^a per day | 84.5 ± 19.7^d per sticky trap | 17.2 ± 7.8^c per sticky trap | 64.0 ± 15.9^b per sticky trap | 64.0 ± 15.9^b per stick trap per day | 1.0 ± 2.0^a per day | 3 | 13.5 ± 4.1^b per day | 0.3 ± 0.5^a per day | 7.2 ± 5.1^a per sticky trap | 9.2 ± 5.6^a per sticky trap | 7.0 ± 4.5^a per sticky trap | 2.3 ± 2.1^ab per stick trap per day | LR values for WCR attraction (literature) [12]: about 3 mg; Mean number of D. u. howardi per day (±standard deviation) (D. u. howardi [4]; August 14, 1987): 0.5 ± 0.7^a per day; Mean number of D. u. howardi per sticky trap per day (±standard deviation) (D. u. howardi [4]; August 27, first year): 3.0 ± 2.8^a per sticky trap per day; Relative percent activity as compared with the highest mean in the column (WCR) ([5]; August 29): 100%; Mean number of WCR per sticky trap (±standard deviation) after 24 hours ([5]; August 29): 147.2 ± 46.5 per sticky trap; Relative percent activity as compared with the highest mean in the column (WCR) ([5]; July 30): 100%; Mean number of WCR per sticky trap (±standard deviation) after 24 hours ([5]; July 30): 82.1 ± 8.6 per sticky trap; Mean number of D. barberi per day (±standard deviation) (D. barberi [8]; August 14, 1987): 4.0 ± 0.8^b per day; Mean number of D. barberi per sticky trap per day (±standard deviation) (D. barberi [8]; August 27, first year): 6.5 ± 3.7^b per sticky trap per day; Mean number of D. cristata per day (±standard deviation) (D. cristata; August 14, 1987): 13.0 ± 4.2^c per day; Mean number of D. cristata per sticky trap per day (±standard deviation) (D. cristata; August 27, first year): 5.3 ± 1.0^b per sticky trap per day; Mean number of D. v. virgifera per day (±standard deviation) (D. v. virgifera [9]; August 14, 1987): 0.3 ± 0.5^a per day; Mean number of D. v. virgifera per sticky trap per day (±standard deviation) (D. v. virgifera [9]; August 27, first year): 0 per sticky trap per day
